Source: ChEMBL document CHEMBL3507680, “University of Dundee, Gates Library screen for HepG2 cell viability”

Experiment: Human HepG2 cell viability assay in 384 well format
Type: toxicity, cell-based
Design: dose 125 nL, time 70.5 hour; concentration not given beside the values
Conditions: HepG2 cells, read-out: Inhibition

SMILES | cytotoxicity at 70.5 h
CC(C)Oc1cccc(C(=O)C2CCCN(C(=O)c3ccnn3C)C2)c1 (stereo not given) | 19.8%
O=C(NCCCn1cccn1)C1CCC(=O)N(Cc2ccccc2F)C1 (stereo not given) | 4.27%
Cn1c2c(c(=O)n1C)CN(C(=O)c1ccncc1F)CCC2 | 5.23%
Cn1c2c(c(=O)n1C)CN(C(=O)c1cccc(F)c1)CCC2 | 1.87%
CCOc1ncnc2c1CCN(S(=O)(=O)c1ccccc1)CC2 | -14.4%
CCOCC1CN(S(=O)(=O)c2cccc(C)c2)Cc2nccn2C1 (stereo not given) | -8.99%
CCOCC1CN(S(=O)(=O)Cc2ccccc2)Cc2nccn2C1 (stereo not given) | -3.22%
CC(C)n1c2ccccc2c2c1cc(C(=O)N(C)C)n2C(=O)N(C)C | -0.266%
CS(=O)(=O)N1C[C@H]2N(c3ncccn3)CCC[C@@]2(C(=O)NCC2CC2)C1 | -7.17%
O=C1CCCN1Cc1nnc2n1CCCN(C(=O)c1ccc[nH]1)C2 | 5.33%
COCCN(C)C(C(=O)O)c1ccc(F)c(Cl)c1 (stereo not given) | 30.8%
O=C(O)c1cc(-c2cncnc2)cc(S(=O)(=O)N2CCCCCC2)c1 | -10.5%
O=C(O)CCc1cn(C2CCN(c3ncccc3Cl)CC2)nn1 | 7.14%
Cc1cccc(C)c1OCC(C)Nc1nc(N)nc2c1CCNC2 (stereo not given) | -11.5%
CCCc1ccc(CN2CCC3(CCC(=O)N(CCCOC)C3)CC2)o1 | 20.6%
Cc1nc(CN2C[C@@H](CN3CCOCC3)[C@@H](CO)C2)c2ccccn12 | 16.5%
Nc1ccnc(N2CCCC(CCc3ccccc3)(C(=O)O)C2)n1 (stereo not given) | -3.28%
CS(=O)(=O)N1C[C@@H]2CC[C@H](C1)N(CCC(=O)NCc1ccccc1F)C2 | 21.2%
CCCC(Cn1cnc(-c2ccccc2)c1-c1cncn1CC)N(C)C (stereo not given) | -0.815%
CN(CCc1ccccn1)C(=O)C(c1cccnc1)N1CCOCC1 (stereo not given) | -1.97%
Cc1nc(C)c(C)c(N(C)CCCc2nccn2C)n1 | -8.93%
CO[C@@H]1c2ccccc2C2(CCN(C(=O)CNC(=O)C(C)C)CC2)[C@H]1O | -6.67%

SMILES | cytotoxicity at 70.5 h
O=C(Cc1ccsc1)N1CCCC(CNS(=O)(=O)Cc2ccccc2)C1 (stereo not given) | -9.34%
CCCSc1ncc(-c2nccn2CCC(N)=O)cn1 | -13.6%
COc1ccc(-n2cc(CCO)cn2)cc1C(N)=O | -14.7%
O=C(c1ccc2nccnc2c1)N1CCN(CCO)[C@@H]2CS(=O)(=O)C[C@@H]21 | -9.05%
CN(Cc1ccsc1)c1nc(-c2ccccn2)nc2c1CCNCC2 | -9.47%
O=C(CCc1cc2n(n1)CCCN(CCc1ccccc1)C2)NC1CC1 | -11%
CC(=O)N[C@@H]1CN(C(=O)c2ccncc2)C[C@H]1c1ccc(C)cc1 | -3.8%
O=C1CCCCN1CCc1nc(C2(c3ccc(F)cc3)CCOC2)no1 (stereo not given) | 12.7%
O=C(CCC1CCCN(S(=O)(=O)C2CC2)C1)Nc1ccc(Cl)cc1 (stereo not given) | 34.5%
CC(C)=CCN1CC2(CCN(C(=O)CCn3ccnc3C)CC2)CC1=O | 0.368%
CCN(CC)C(=O)[C@@H]1C[C@@H](NC(=O)c2cccc(N(C)C)c2)CN1C | 26.1%
COc1ccccc1OC1CCN(c2nc(N)nc3[nH]cnc23)CC1 | 2.92%
CC[C@H](CO)NC(=O)c1coc(COc2ccccc2F)n1 | 2.14%
CCOc1ccc(C(=O)N2C[C@H]3CC[C@@H]2CN(C)C3)cc1OCC | -14.6%
Cc1cc(C)c2c(N3CCC(C(=O)N4CCOCC4)CC3)ncnc2n1 | 20.2%
CC1(C)OC(=O)N(CCCOc2ccc(F)cc2)C1=O | -11.6%
CCC1CN(C(=O)c2ncccc2O)CCC(=O)N1Cc1ccccc1 (stereo not given) | -0.966%
Cc1nc2sccn2c1C(=O)N1CCc2c(nc(N(C)C)[nH]c2=O)C1 | 1.53%
COc1ccc(Cc2ncc3c(n2)CN(C(=O)C(C)(C)C)C3)cc1 | -1.36%
CCN1CC(C(=O)NCc2ccc3c(c2)nc(C)n3C)CCC1=O (stereo not given) | -13.6%
CCc1c(C)nn(CC(=O)NC(C(=O)O)c2c(C)n[nH]c2C)c1C (stereo not given) | -7.94%
CC(C)(CN1CCOCC1)CN1CCC(Cc2cccc(CO)c2)C1 (stereo not given) | 17.8%

SMILES | cytotoxicity at 70.5 h
COc1nc2c(cc1C(=O)NC(C)Cc1cnccn1)CCC2 (stereo not given) | -7.71%
O=C(NCCNc1cccnc1)C(c1cccnc1)N1CCCC1 (stereo not given) | -9.35%
COCCN(Cc1ccccc1Cl)c1nc(CCN)nc2ccccc12 | -6.84%
Cc1cc(C)cc(CCC(=O)NC(C)c2nnn[nH]2)c1 (stereo not given) | -2.97%
Cc1cn(CC(=O)N(C)Cc2cccc3ncccc23)c(=O)[nH]c1=O | 6.82%
CCc1noc(CN(CCc2ccccc2)C2CCN(C)CC2)n1 | 25.9%
COCc1nc(NCC2CCS(=O)(=O)C2)c2cnn(C)c2n1 (stereo not given) | -7.96%
CN(CCO)Cc1cc(Cl)ccc1OCC(O)CN1CCCCCC1 (stereo not given) | -14.1%
COc1cccc(-c2cc(C(=O)NCCCC(F)(F)F)[nH]n2)c1 | 30.9%
O=C(CN1CCOC(c2ccc(Cl)c(Cl)c2)C1)NCc1ccco1 (stereo not given) | 3.47%
CCC(O)Cn1nc(CCSC)nc1-c1ccc2c(c1)OCCO2 (stereo not given) | 15.5%
O=C(c1cnc(-c2cccnc2)nc1)N1CCC(c2ccncc2)CC1 | -5.85%
CCc1ncc(-c2nccn2-c2cccc(CC(=O)O)c2)cn1 | -11.5%
COc1ccc2nc(CNC(=O)c3cc(C(C)C)no3)[nH]c2c1 | 39.1%
O=C1N(Cc2ccc(F)c(F)c2)CCCC12CCN(C1CCCCC1)C2 (stereo not given) | 1.47%
CCn1c(CC2CCN(C(=O)c3cc(C(C)C)nn3C)CC2)n[nH]c1=O | 2.37%
NC(=O)c1cc2c(nc1CC1CCCCO1)CCC2 (stereo not given) | -2.08%
O=C(NCc1nncn1C1CCCCC1)C1CNCCO1 (stereo not given) | -6.16%
CCc1cn[nH]c1C1CCCN(C(=O)c2cnc(NC(C)C)nc2)C1 (stereo not given) | -5.16%
COCC(C)NCc1ccc2[nH]c(C)c(C)c2c1 (stereo not given) | -7.86%
Cc1nc(-c2cccnc2)ncc1C(=O)N1CCCC(N(C)C)CC1 (stereo not given) | -20%
CCC[C@H]1CN(S(=O)(=O)c2c(C)noc2C)C[C@@H]1N | -3.53%

SMILES | cytotoxicity at 70.5 h
CC(C)Cc1cn(C2CCN(C(C)CCn3cccn3)CC2)nn1 (stereo not given) | -11.6%
CO[C@H]1C[C@@H](O)C12CCN(C(=O)NCc1ccco1)CC2 | 17.8%
O=C1CCC2(CCCN(C(=O)C3CCCC3)C2)CN1CCc1c[nH]cn1 (stereo not given) | -2.97%
O=C(NCc1csc2ccc(Cl)cc12)c1cc2n(n1)CCNC2 | 3.64%
O=C(CN1CCCCC1)NCc1cccnc1-n1cnc2ccccc21 | -4.51%
CCC(Nc1cccc(OC)c1)C(=O)N(CCO)Cc1nccs1 (stereo not given) | -3.06%
NC(=O)c1cc2c(nc1-c1ccc3c(c1)OCCO3)CCC2 | -9.8%
Cc1ccc(OCc2occc2C(=O)N2CCCCC(N)C2)cc1 (stereo not given) | -2.2%
CN(C)C(=O)CN1C[C@@H]2CC[C@H](C1)N(Cc1ccccc1C#N)C2 | -11%
CC(C)Cc1cc(CN2C[C@H]3CC[C@@H]2CN(Cc2cscn2)C3)n[nH]1 | 12.5%
CC(C)CC(C)NC1CCN(c2ccc(-c3cscn3)cc2)CC1 (stereo not given) | -15.5%
COc1cccc(-n2cc(-c3ccnc(NC(CO)C(C)C)n3)cn2)c1 (stereo not given) | 13.2%
CCn1cc(CN2CCC3(CC2)c2ccccc2CC3O)cn1 (stereo not given) | -8.46%
CCCc1cc(C(=O)NC(COC)c2ccnn2C)no1 (stereo not given) | 14.9%
CN(C)CC1(O)CCN(C(=O)c2cnc(-c3cccnc3)nc2)C1 (stereo not given) | 3.5%
O=C(Cn1cccn1)N1CCc2[nH]nc(-c3ccc4c(c3)OCO4)c2C1 | -7.87%
O=C(O)[C@@H]1CN(CC(=O)N2CCCCCC2)C[C@H]1c1ccc(F)cc1 | -5.12%
Cc1ncc(CO)c(CN2CCCC2c2nc3c(C)cccc3[nH]2)c1O (stereo not given) | -0.268%
Cc1cc(C)cc(CN2CCN(Cc3ccc4nonc4c3)CC2=O)c1 | -0.612%
O=C(c1ccc(-c2cccc3c2CCNC3)o1)N1CCCCC1 | -3.94%
O=C(Cc1ccccc1)C1CCCN(Cc2cncn2C2CCCC2)C1 (stereo not given) | -7.77%
Cc1ccc(NC2(C(=O)N3CCn4cncc4C3)CCCCC2)cc1C | -12.1%

SMILES | cytotoxicity at 70.5 h
Cc1ncsc1CCN(C)C(=O)CN1CC2(CCNCC2)OC1=O | 17.2%
COc1cccc2c1OCC(C(=O)NCCn1nc(C)c(Cl)c1C)C2 (stereo not given) | -5.88%
COc1ccc(N2CCN(C(=O)CCc3n[nH]c(C)n3)CC2=O)cc1 | 15.6%
CCc1cnc(C)nc1NCCNc1nc(C)cc(=O)[nH]1 | 0.367%
Cc1cnc(N2CCc3c(CNc4ccnc(C)n4)cncc3C2)nc1 | 18.6%
CC1c2ncc(Cn3cccn3)n2CCN1Cc1ccc(F)cc1 (stereo not given) | -2.85%
COCCN1C(=O)C2(CCN(CC3CC3)CC2)c2ccccc21 | 0.205%
c1cnc(N2C[C@H]3CCN(CC4CC4)C[C@H]3C2)cn1 | 3.82%
CC1COC2(CCN(C(=O)Cc3ccncc3)CC2)C1 (stereo not given) | -0.819%
N#Cc1ccc(N2CCCC3(CCN(c4cncnc4)C3=O)C2)nc1 (stereo not given) | 7.49%
O=C(C1CC=CC1)N1C[C@H]2CN(Cc3ccncc3)C(=O)[C@H]2C1 | 2.42%
CCCN1CCC(c2nc3ccc(C)cn3n2)CC1 | -6.41%
Cc1csc(CN2CCC3(CC2)COC(COCC2CC2)C3)n1 (stereo not given) | -0.893%
CCCN1CCC(c2nc3ccc(-c4cccc(F)c4)cn3n2)CC1 | -7.17%
Cc1noc(C)c1CN1CCc2ncnc(-c3ccoc3)c2CC1 | 15.5%
Cc1noc(C)c1CN1CCc2ncnc(-c3ccccc3)c2CC1 | 18.5%
CN(C)CCN1C[C@@H]2CN(S(=O)(=O)c3ccccc3)C[C@@H]2C1=O | -0.863%
Cc1noc(C)c1CN1CCC2(CC1)C(c1cnn(C)c1)CC(=O)N2C (stereo not given) | -7.83%
CC1c2ncc(Cn3cccn3)n2CCN1Cc1ccccn1 (stereo not given) | -1.75%
c1cc(CN2C[C@@H]3OCCN(CC4CC4)[C@@H]3C2)n[nH]1 | -7.71%
Cc1noc(C)c1CN1CCc2ncnc(-c3ccncc3)c2CC1 | 42.6%
O=C(C1CCC2(CCN(Cc3cccnc3)CC2)CO1)N1CCCC1 (stereo not given) | -7.42%
